Values of other authors in patent publication US20230364254A1, “METHODS FOR TREATING CANCERS WITH ANTIBODY DRUG CONJUGATES (ADC) THAT BIND TO 191P4D12 PROTEINS” (priority 2020, published 2023).
Where two headings read alike, the source gives them in different places.

How the values were obtained:
[1] = tested on: metastatic urothelial cancer; settings: cited from earlier work
[2] = tested on: acute myeloid leukemia (AML); settings: administered alone; cited from earlier work
[3] = first line, patients ineligible for cisplatin, open-label single arm study
[4] = second-line, post-platinum, phase 3 study in 542 patients

CC(=O)O[C@@]12CO[C@@H]1C[C@H](O)[C@@]1(C)C(=O)[C@H](O)C3=C(C)[C@@H](OC(=O)[C@H](O)[C@@H](NC(=O)OC(C)(C)C)c4ccccc4)C[C@@](O)([C@@H](OC(=O)c4ccccc4)[C@H]21)C3(C)C [docetaxel]
ORR (n=2/19) ([1]; after platinum and CPI therapy): 10.5%

CC[C@]12C=CCN3CC[C@@]4(c5cc([C@@]6(C(=O)OC)C[C@@H]7C[C@@H](C(C)(F)F)CN(Cc8c6[nH]c6ccccc86)C7)c(OC)cc5N(C)[C@H]4[C@@](O)(C(=O)OC)[C@@H]1OC(C)=O)[C@@H]32 [vinflunine]
overall response rate ([1]; second-line treatment of metastatic disease): 9% | hazard ratio ([1]; second-line, vinflunine+BSC vs BSC alone): 0.88 | survival benefit ([1]; second-line, vinflunine+best supportive care (BSC) vs BSC alone): 2 months | survival ([1]; second-line, vinflunine+best supportive care (BSC)): 6.9 months

CT-011: anti-PD-1 antibody, a humanized antibody
response in acute myeloid leukemia (AML) at relapse [2]: failed to show response

atezolizumab: anti-programmed death-ligand 1 (PD-L1) immune checkpoint inhibitor
median OS [1, 3]: 15.9 months | objective response rate (ORR) [1, 3]: 23% | confirmatory phase 3 trial outcome ([1]; second-line): failed to meet its primary endpoint of OS

pembrolizumab: humanized monoclonal IgG4 anti-PD-1 antibody
ORR ([1]; first line, patients ineligible for cisplatin, open label single arm study in 370 patients): 29% | difference in progression-free survival (PFS) between the two arms ([1]; second-line, post-platinum, phase 3, vs taxane chemotherapy or vinflunine): No statistically significant difference | ORR [1, 4]: 21% | OS [1, 4]: 10.3 months
